Data taken from ChEMBL document CHEMBL5257093, “3-Arylidene-2-oxindoles as GSK3β inhibitors and anti-thrombotic agents” (Bioorg Med Chem Lett, 2023).
Blank lines part the entries; values can stand above or below the molecule they belong to.

Key:
[1] = target: Glycogen synthase kinase-3 beta (Homo sapiens, UniProt P49841); test: Inhibition of recombinant human GSK3beta […] assessed as reduction in human muscle glycogen synthase type 1 fragment phosphorylation using YRRAAVPPSPSLSRHSSPHQ(pS)EDE as substrate in presence of ATP incubated for 60 mins by ADP-Glo kinase assay
Glycogen synthase kinase-3 beta, sequence (P49841 whole entry, the tested form may be a part): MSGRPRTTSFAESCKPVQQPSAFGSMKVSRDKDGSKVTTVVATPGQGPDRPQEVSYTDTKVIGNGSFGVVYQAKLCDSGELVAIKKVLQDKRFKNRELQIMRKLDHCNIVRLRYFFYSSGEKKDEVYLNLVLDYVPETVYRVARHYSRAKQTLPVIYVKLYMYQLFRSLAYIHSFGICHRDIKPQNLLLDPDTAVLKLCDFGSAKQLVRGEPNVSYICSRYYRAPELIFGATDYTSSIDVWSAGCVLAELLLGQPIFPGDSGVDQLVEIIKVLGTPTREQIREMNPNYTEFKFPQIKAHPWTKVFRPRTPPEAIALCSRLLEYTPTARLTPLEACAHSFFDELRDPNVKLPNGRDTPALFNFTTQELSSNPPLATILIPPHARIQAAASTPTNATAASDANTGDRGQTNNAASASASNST

Homo sapiens [2] = species on record: Homo sapiens; test: Antiplatelet activity in platelet rich plasma (unknown origin) assessed as inhibition of ADP-induced platelet aggregation incubated for 5 mins by aggregometer analysis; type: functional
Homo sapiens [3] = species on record: Homo sapiens; test: Antiplatelet activity in platelet rich plasma (unknown origin) assessed as inhibition of collagen-induced platelet aggregation incubated for 5 mins by aggregometer analysis; type: functional
Rattus norvegicus = test: Antithrombotic activity FeCl3-induced carotid artery thrombosis rat model assessed as prolongation of artery occlusion time pretreated dosed IG for 2 hrs followed by 50% FeCl3 application; type: functional; details: po
Homo sapiens [4] = species on record: Homo sapiens; test: cells; details: Platelet, Plasma, 5 min, read-out: INH
Description: Antiplatelet activity in platelet rich plasma (unknown origin) assessed as inhibition of ADP-induced platelet aggregation at 10 uM incubated for 5 mins by aggregometer analysis

Homo sapiens [5] = species on record: Homo sapiens; test: cells; details: Platelet, Plasma, 5 min, read-out: INH; remark: listed apart in the source
Description: Antiplatelet activity in platelet rich plasma (unknown origin) assessed as inhibition of ADP-induced platelet aggregation at 1 uM incubated for 5 mins by aggregometer analysis

Homo sapiens [6] = species on record: Homo sapiens; test: cells; details: Platelet, Plasma, 5 min, read-out: INH; remark: listed apart in the source
Description: Antiplatelet activity in platelet rich plasma (unknown origin) assessed as inhibition of ADP-induced platelet aggregation at 100 uM incubated for 5 mins by aggregometer analysis

[7] = (§1) Cytotoxicity against mouse Peritoneal macrophages assessed as LDH release by LDH assay; type: toxicity, cell-based, Peritoneal macrophage; details: peritoneal macrophages
Peritoneal macrophage = test: as §1; type: toxicity, cell-based; details: peritoneal macrophage

Structure (SMILES): CC(=O)Nc1ccc2c(c1)/C(=C\c1ccc(O)cc1)C(=O)N2
IC50 [1]: 34.4 µM

IC50 (Homo sapiens [2]): 81 µM
IC50 (Homo sapiens [3]): 4.5 µM
Structure (SMILES): CC(=O)Oc1ccccc1C(=O)O [ASPIRIN]
ED50 (Rattus norvegicus): 137 mg/kg

Structure (SMILES): CC(=O)Nc1ccc2c(c1)/C(=C\c1cccnc1)C(=O)N2
IC50 [1]: > 50 µM

Structure (SMILES): O=C1Nc2ccc([N+](=O)[O-])cc2/C1=C\c1cccnc1
IC50 [1]: 20 µM

Structure (SMILES): COCC(=O)c1[nH]ncc1/C=C1\C(=O)Nc2ccccc21
IC50 [1]: 6.72 µM

Structure (SMILES): COC(=O)Nc1ccc2c(c1)/C(=C\c1ccc([N+](=O)[O-])cc1)C(=O)N2
IC50 [1]: 0.348 µM

Structure (SMILES): Nc1ccc2c(c1)C(Cc1ccccn1)C(=O)N2 (stereo not given)
IC50 [1]: > 50 µM

Structure (SMILES): O=C1Nc2ccccc2C1Cc1cccnc1 (stereo not given)
inhibition at 10 µM (Homo sapiens [4]): 55.6%
IC50 [1]: 0.0042 µM
IC50 (Homo sapiens [3]; read-out: IC50): 3 µM
inhibition at 1 µM (Homo sapiens [5]): 26.5%
inhibition at 100 µM (Homo sapiens [6]): 75.6%
ED50 (Rattus norvegicus): 7.3 mg/kg
CC50 [7]: > 100 µM

IC50 (Homo sapiens [2]; read-out: IC50): 8.9 µM
IC50 (Homo sapiens [3]; read-out: IC50): 37 µM
Structure (SMILES): O=C1Nc2ccccc2C12CC2c1ccccn1 (stereo not given)
CC50 (Peritoneal macrophage): > 100 µM

Structure (SMILES): Cc1ccc(C(=O)CC2(O)C(=O)Nc3ccc(NC(=O)c4ccccc4)cc32)cc1 (stereo not given)
IC50 [1]: 1.72 µM

Structure (SMILES): O=C1Nc2ccccc2/C1=C\c1ccc(O)cc1
IC50 [1]: > 50 µM

Structure (SMILES): CN1C(=O)/C(=C/c2ccccn2)c2ccccc21
IC50 [1]: > 50 µM

Structure (SMILES): CCOC(=O)c1[nH]ncc1/C=C1\C(=O)Nc2ccc([N+](=O)[O-])cc21
IC50 [1]: 1.77 µM

Structure (SMILES): Cc1n[nH]cc1/C=C1/C(=O)Nc2ccccc21
IC50 [1]: 5.68 µM

Structure (SMILES): O=C1Nc2ccc(NC(=O)c3ccccc3)cc2/C1=C\c1ccc(O)cc1
inhibition at 10 µM (Homo sapiens [4]): 37.2%
IC50 (Homo sapiens [2]; read-out: IC50): 18.5 µM
IC50 (Homo sapiens [3]; read-out: IC50): 46.7 µM
inhibition at 1 µM (Homo sapiens [5]): 19.3%
inhibition at 100 µM (Homo sapiens [6]): 72.3%
CC50 (Peritoneal macrophage): > 100 µM

Structure (SMILES): Cn1cc(/C=C2/C(=O)Nc3ccccc32)cn1
IC50 [1]: 13.5 µM

Structure (SMILES): COC(=O)Nc1ccc2c(c1)/C(=C\c1ccc(O)cc1)C(=O)N2
IC50 (Homo sapiens [2]; read-out: IC50): 13.5 µM
IC50 (Homo sapiens [3]; read-out: IC50): > 100 µM
CC50 (Peritoneal macrophage): > 100 µM

Structure (SMILES): Nc1ccc(CC2C(=O)Nc3ccccc32)cc1 (stereo not given)
IC50 [1]: 50 µM
